Data taken from ChEMBL document CHEMBL1201862, “PubChem BioAssay data set” (2004).
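48-hour exposure; five concentrations; linearly interpolated endpoints. Abbreviation: GI50, concentration required for 50% inhibition of growth.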 Activity calls are given as the source filed them. Rule as the data show it: active = GI50 up to about 1.1 µM and inactive = higher.

Assays:
Assay in all cases: inhibition of tumour cell growth, NCI panel, 48 h
A498 = test system: A498
NCI-H226 = test system: NCI-H226
IGROV-1 = test system: IGROV-1
SK-MEL-28 = test system: SK-MEL-28
NCI-H522 = test system: NCI-H522
786-0 = test system: 786-0
A549 = test system: A549
HT-29 = test system: HT-29
MOLT-4 = test system: MOLT-4
OVCAR-3 = test system: OVCAR-3
SN12C = test system: SN12C
KM-20L2 = test system: KM-20L2
UACC-257 = test system: UACC-257
TK-10 = test system: TK-10
NCI-H460 = test system: NCI-H460
NCI-H23 = test system: NCI-H23
SNB-75 = test system: SNB-75
SK-MEL-5 = test system: SK-MEL-5

Row | SMILES | GI50 (A498) | GI50 (NCI-H226) | GI50 (IGROV-1) | GI50 (SK-MEL-28) | GI50 (NCI-H522) | GI50 (786-0) | GI50 (A549) | GI50 (HT-29) | GI50 (MOLT-4) | GI50 (OVCAR-3) | GI50 (SN12C) | GI50 (KM-20L2) | GI50 (UACC-257) | GI50 (TK-10) | GI50 (NCI-H460) | GI50 (NCI-H23) | GI50 (SNB-75) | GI50 (SK-MEL-5)
1 | COC(=O)c1c[nH]cc1CCc1c[nH]cc1C(=O)OC | 48.2 µM (inactive) | > 100 µM (inactive) | > 100 µM (inactive) | > 100 µM (inactive) | 58.1 µM (inactive) | > 100 µM (inactive) | > 100 µM (inactive) | > 100 µM (inactive) | > 100 µM (inactive) | > 100 µM (inactive) | > 100 µM (inactive) | > 100 µM (inactive) | > 100 µM (inactive) | > 100 µM (inactive) | > 100 µM (inactive) | > 100 µM (inactive) | – | –
2 | CC1CC(C)C(C(O)CC2CC(=O)N(c3ccccc3)C(=O)C2)C(O)C1 (stereo not drawn) | > 100 µM (inactive) | > 100 µM (inactive) | > 100 µM (inactive) | > 100 µM (inactive) | > 100 µM (inactive) | > 100 µM (inactive) | > 100 µM (inactive) | > 100 µM (inactive) | > 100 µM (inactive) | > 100 µM (inactive) | > 100 µM (inactive) | > 100 µM (inactive) | > 100 µM (inactive) | > 100 µM (inactive) | > 100 µM (inactive) | > 100 µM (inactive) | > 100 µM (inactive) | –
3 | CC(C)c1cc(OCC(O)CO)cc(C(C)C)c1 (stereo not drawn) | > 100 µM (inactive) | > 100 µM (inactive) | > 100 µM (inactive) | > 100 µM (inactive) | > 100 µM (inactive) | > 100 µM (inactive) | > 100 µM (inactive) | > 100 µM (inactive) | > 100 µM (inactive) | > 100 µM (inactive) | > 100 µM (inactive) | > 100 µM (inactive) | > 100 µM (inactive) | > 100 µM (inactive) | > 100 µM (inactive) | > 100 µM (inactive) | > 100 µM (inactive) | > 100 µM (inactive)
4 | CC(Oc1ccc2cc(C(=O)c3ccccc3)c(=O)oc2c1)C(=O)O (stereo not drawn) | > 100 µM (inactive) | > 100 µM (inactive) | > 100 µM (inactive) | > 100 µM (inactive) | > 100 µM (inactive) | > 100 µM (inactive) | > 100 µM (inactive) | > 100 µM (inactive) | > 100 µM (inactive) | > 100 µM (inactive) | > 100 µM (inactive) | > 100 µM (inactive) | > 100 µM (inactive) | > 100 µM (inactive) | > 100 µM (inactive) | > 100 µM (inactive) | > 100 µM (inactive) | > 100 µM (inactive)
5 | CC1=C(C(=O)Nc2ccc([N+](=O)[O-])cc2)C(c2ccc3c(c2)OCO3)C(C(=O)Nc2ccc([N+](=O)[O-])cc2)=C(C)N1 | 14.2 µM (inactive) | 14.7 µM (inactive) | 8.41 µM (inactive) | 24.9 µM (inactive) | 24.1 µM (inactive) | 14.1 µM (inactive) | 24.2 µM (inactive) | 6.95 µM (inactive) | 0.321 µM (active) | 6.43 µM (inactive) | 38.3 µM (inactive) | 28 µM (inactive) | 5.6 µM (inactive) | – | 10 µM (inactive) | 5.78 µM (inactive) | 6.18 µM (inactive) | –
6 | CCOC(=N)CC(=O)Nc1ccccc1CC | > 100 µM (inactive) | > 100 µM (inactive) | > 100 µM (inactive) | > 100 µM (inactive) | > 100 µM (inactive) | > 100 µM (inactive) | > 100 µM (inactive) | > 100 µM (inactive) | > 100 µM (inactive) | > 100 µM (inactive) | > 100 µM (inactive) | > 100 µM (inactive) | > 100 µM (inactive) | > 100 µM (inactive) | > 100 µM (inactive) | > 100 µM (inactive) | > 100 µM (inactive) | > 100 µM (inactive)
7 | COc1ccc2nc3c(c(NCCCN(C)C)c2c1)CCCC3 | 20.3 µM (inactive) | 16.3 µM (inactive) | 19.3 µM (inactive) | 16.9 µM (inactive) | 14.9 µM (inactive) | 15.4 µM (inactive) | 21.4 µM (inactive) | 5.41 µM (inactive) | 3.4 µM (inactive) | 19.4 µM (inactive) | 17.2 µM (inactive) | 6.7 µM (inactive) | 17 µM (inactive) | 26.1 µM (inactive) | 10.3 µM (inactive) | 17.1 µM (inactive) | 13.2 µM (inactive) | 15.8 µM (inactive)
8 | Cc1cc(=O)oc2cc(OCCCOc3ccc4c(C)cc(=O)oc4c3)ccc12 | > 100 µM (inactive) | > 100 µM (inactive) | > 100 µM (inactive) | > 100 µM (inactive) | – | 59.8 µM (inactive) | > 100 µM (inactive) | > 100 µM (inactive) | > 100 µM (inactive) | > 100 µM (inactive) | > 100 µM (inactive) | > 100 µM (inactive) | > 100 µM (inactive) | > 100 µM (inactive) | > 100 µM (inactive) | > 100 µM (inactive) | 38.6 µM (inactive) | > 100 µM (inactive)
